Key:
[1] = tested on: Klebsiella pneumoniae Kpn St147 (NDM-1 and KPC-2); assay: MIC determination of ceftazidime with zinc chelator and avibactam (checkerboard, broth microdilution); type: cell-based; conditions: with CAZ and avibactam
Excerpt: (§1) The fractional inhibitory concentration (FIC) is defined as the concentration that kills when used in combination with another agent divided by the concentration that has the same effect when used alone. The FIC index (FICI) for the combination of two agents is the sum of their individual FIC values. […] The European Committee for Antimicrobial Susceptibility Testing (EUCAST) of the European Society of Clinical Microbiology and Infectious Diseases (ESCMID) 2000 adopts the following definitions to determine the susceptibility of bacteria to an antimicrobial agent (see EUCAST Definitive Document E. Def 1.2: Terminology relating to methods for the determination of susceptibility of bacteria to antimicrobial agents. Clin. Microbiol. Infect. 2000; 6(9): 503-508): • FICI value≤0.5; synergy • 0.5<FICI value≤1; additive effect • 1<FICI value≤2; indifferent effect • FICI≥2; antagonistic effect
(§2) Antimicrobial susceptibility testing (AST) by broth microdilution was performed according to The European Committee on Antimicrobial Susceptibility Testing. Reading guide for broth microdilution. Version 4.0, 2022 (see: http://www.eucast.org).
Checkerboard 96-well plates (Corning 3788) were made by conducting serial two-fold dilutions of CAZ in cation-adjusted Mueller Hinton II broth (caMHB; Thermo Scientific, T3462), in columns across the microtiter plate (64-0.03 μg/ml). Additionally, avibactam was added to rows 3 to 8 in concentrations of 64, 16, 8, 4, 1 and 0.25 μg/ml, respectively. The zinc chelator was added to the wells of the plate, where applicable. […] The first row in all plates was used as a positive control for CAZ only, and the second row included the zinc chelator in addition to CAZ (no avibactam added to rows 1 or 2). The zinc chelator was added at the indicated concentration to rows 3-8 of plates 2 and 3.
(§3) The effect of the combination of zinc chelator/CAZ/avibactam was tested on a clinically isolated Klebsiella pneumoniae Kpn St147 actively constitutionally expressing the two resistance mechanisms NDM-1 and KPC-2 simultaneously. As a negative control, bacteria+CAZ was tested alone. As a positive control, bacteria+CAZ+zinc chelator was used. In Tables 3 and 4, concentrations (μg/ml) of CAZ are given in the top row left to right and avibactam concentrations (μg/ml) are given top to bottom in column 1.
(§4) ΣFICI=MICA(combination)/MICA (alone)+MICB(combination)/MICB (alone)+MICC(combination)/MICC (alone)

[2] = tested on: Klebsiella pneumoniae Kpn St147 (NDM-1 and KPC-2); assay: MIC determination of cefepime with zinc chelator and avibactam (checkerboard, broth microdilution); type: cell-based
Experimental: as §2
Checkerboard 96-well plates (Corning 3788) were made by conducting serial two-fold dilutions of cefepime in cation-adjusted Mueller Hinton II broth (caMHB; Thermo Scientific, T3462), in columns across the microtiter plate (64-0.03 μg/ml). Additionally, avibactam was added to rows 3 to 8 in concentrations of 64, 16, 8, 4, 1 and 0.25 μg/ml, respectively. The zinc chelator was added to the wells of the plate, where applicable. Three plates were made per experiment, one without the zinc chelator (plate 1), one with 16 μg/ml of the zinc chelator (plate 2) and one with 32 μg/ml of the zinc chelator (plate 3). The first row in all plates was used as a positive control for cefepime only, and the second row included the zinc chelator in addition to cefepime (no avibactam added to rows 1 or 2). The zinc chelator was added at the indicated concentration, to rows 3-8 of plates 2 and 3.
as §3, with “chelator/FEP/avibactam” for “chelator/CAZ/avibactam”, “bacteria+FEP” for “bacteria+CAZ”, “bacteria+FEP+zinc” for “bacteria+CAZ+zinc”, “1” for “3”, “2,” for “4,”, “FEP” for “CAZ”
as §1
To test for synergy, all data were subjected to the following formula in which A=zinc chelator; B=cefepime; and C=avibactam:
as §4

[3] = tested on: many strains of Acinetobacter baumannii; conditions: in combination with meropenem; cited from earlier work
[4] = tested on: bacteria which rely on SBLs; conditions: in combination with meropenem; cited from earlier work
[5] = tested on: certain strains of Pseudomonas aeruginosa; conditions: in combination with meropenem; cited from earlier work

SMILES: CN(C[C@H](O)[C@@H](O)[C@H](O)[C@H](O)CO)C(=O)c1ccc(CN(Cc2ccccn2)Cc2ccccn2)nc1 [zinc chelator]
- FICI Zinc Chelator ([1]; zinc chelator 8 μg/mL): 0.0039
- FICI Zinc Chelator ([1]; zinc chelator 16 μg/mL): 0.0078
- FICI Zinc Chelator ([2]; zinc chelator 8 μg/mL, with FEP and avibactam): 0.004
- amplification of the inhibitory effect ([2]; zinc chelator at 16 μg/ml, with cefepime and avibactam): about 16 fold
- effect of combination with meropenem [3]: poor effect
- effect of combination with meropenem [4]: no effect
- effect of combination with meropenem [5]: poor effect
